{"source": "patent US8772348B2", "about": "“Materials and methods for pest control” (priority 2009, dated 2014)", "key": {"[1]": {"tested_on": "Susceptible Musca domestica", "experiment": "Glass jar contact bioassay, susceptible (laboratory) house flies", "conditions": "for decline in toxicity after a 24-hour holding period subsequent to an initial 2-hour exposure: 2 h transferred vs 2 h constant", "description": "Briefly, adult house flies, Musca domestica, are obtained from strains that have been reared in the laboratory of the Entomology and Nematology Department, University of Florida. […] The positive control is exposed to serial dilutions of permethrin. The negative control is not exposed to any chemical compound. The mortality rate is measured after 2-hour, 4-hour, and 24-hour periods. Ataxic flies are considered dead.\n(§1) The ability of house flies to recover from insecticidal exposure is also investigated. After a 2-hour exposure, each set of flies is transferred into a separate glass jar. The mortality rate is measured at two time intervals: first, immediately at the transfer (2 hours after the initial exposure), and second, 22 hours after the transfer (24 hours after the initial exposure).\nThe mortality rate is analyzed using the PROBIT model. The data is adjusted based on the mortality rate in the control set using the Abbott's transformation, and the percent mortality is further analyzed based on ANOVA measurement. The experiment is repeated at least three times. The data is discarded if the mortality rate in the control set exceeds 10%. The LC50 and LC90 values are further determined using the SAS (Cary, N.C., USA) statistical software. For each chemical compound, at least 1280 flies are examined."}, "Stomoxys calcitrans": {"tested_on": "Stomoxys calcitrans", "description": "Briefly, one Stomoxys calcitrans strain is collected from the University of Florida dairy unit in Alachua County, Florida, U.S.A. (“the Alachua strain”) and subsequently reared at 27° C. in the laboratory of the Entomology and Nematology Department, University of Florida.\nEach strain is divided into four sets: three sets as the experimental treatments and the other set as the control. […] The control set is not exposed to any chemical compound. The mortality rate is measured after a 2-hour, 4-hour, and 24-hour period. Ataxic flies are considered dead. The mortality rate and the LC values are determined using the same procedures as is illustrated in Example 2."}, "[2]": {"tested_on": "Susceptible Musca domestica", "experiment": "Contact bioassay of emulsified concentrate formulations on filter paper discs", "conditions": "EC formulation on filter paper", "description": "A commercially-available permethrin 57 g L^−1 EC (Ectiban EC 57; Universal Cooperatives, Minneapolis, Minn.) was included for comparison. Except rosalva, the 50% EC semiochemical formulations were generated by combining 500 mL AI, 430 mL canola oil (Publix, Lakeland, Fla.), 10 mL xylene, 50 mL Triton X-100 (Acros Organics Nev., Fair Lawn, N.J.) and 10 mL Agsolex-8 (International Specialty Products, Wayne, N.J.). The rosalva formulation contained all of the above-mentioned ingredients, with canola oil concentration reduced to 400 mL L^−1, Triton X-100 concentration increased to 75 mL L^−1, and 5 mL L^−1 Antifoam B silicone emulsion (Mallinckrodt Baker, Phillipsburg, N.Y.) included.\nBriefly, Whatman No. 1 filter paper discs (63.58 cm^2) are impregnated with 1.5 ml serially diluted formulations in 20 emulsified concentrates and 50 emulsified concentrates, respectively, and subsequently dried for about an hour. Then, house flies are divided into seven sets: three sets as the experiment, three sets as the positive control, and one set as the negative control. Each set consists of twenty six-to-ten-day old adult flies. […] The positive control set is exposed to paper discs impregnated with geranyl acetone, rosalva or citronellol. The negative control set is exposed to paper discs impregnated with acetone solution. Throughout the exposure periods, each set is provided with 10% sucrose solution and sufficient air circulation. Ataxic flies are considered dead. The mortality rate and the LC values are determined using the same procedures as is illustrated in Example 2."}, "Aedes aegypti [3]": {"tested_on": "Aedes aegypti", "conditions": "filter paper discs, after a 24-hour exposure", "description": "Briefly, yellow fever mosquito, Ae. aegypti were obtained from strains that have been cultured in the laboratory of the Entomology and Nematology Department, University of Florida.\n(§2) The mortality rate is measured after a 2-hour, 4-hour and 24-hour exposure period. Ataxic mosquitoes are considered dead.\nas §1, with “Ae. aegypti” for “house flies”, “Ae. aegypti” for “flies”, “separate” for “separate glass”"}, "[4]": {"tested_on": "Anopheles quadrimaculatus", "conditions": "for mortality at the 24-hour examination: 24-hour exposure", "excerpt": "(§3) Briefly, Anopheles quadrimaculatus (Say) is obtained from the United States Department of Agriculture, ARS, Center for Medical, Agricultural and Veterinary Entomology, Gainesville, Fla., and adults are held in the laboratory of the Entomology and Nematology Department, University of Florida with no insecticide exposure or introduction of other insects. The Asian tiger mosquito, Ae. albopictus (Skuse) is obtained from a laboratory colony of the Entomology and Nematology Department, University of Florida.\n(§4) Each strain is divided into four sets: three sets as the experiment and the other set as the control. […] The mortality rate is measured after a 2-hour, 4-hour, and 24-hour exposure period. Ataxic mosquitoes are considered dead. The mortality rate and the LC values are determined using the same procedures as is illustrated in Example 2."}, "Aedes albopictus": {"tested_on": "Aedes albopictus", "conditions": "for mortality at the 24-hour examination: 24-hour exposure", "excerpt": "as §3, §4"}, "Aedes aegypti [5]": {"tested_on": "Aedes aegypti", "conditions": "for LC50: On camouflage military fabric", "description": "as §2\nas §1, with “Ae. aegypti” for “house flies”, “Ae. aegypti” for “flies”, “separate” for “separate glass”\nThe mortality rate and the LC values are determined using the same procedures as is illustrated in Example 2."}, "[6]": {"tested_on": "Field-collected Musca domestica", "conditions": "for % mortality: formulation on plywood panels, 3.33 mg/cm^2 (footnote 1.67)", "description": "Briefly, one Musca domestica strain and one other Musca domestica strain are obtained as is illustrated in Example 3. Each fly strain is divided into seven sets: three sets as the experiment, three sets as the positive control, and one set as the negative control. Flies are assayed on unpainted plywood panel boards that have been previously exposed to natural summer weather conditions for at least 10 days. […] The formulation is applied at a uniform rate of 7.5 ml per 225 cm^2, sufficient to cover the entire panel without dripping. Subsequently, the treated panel boards are dried for about an hour.\nIn each set, 20 adult flies are placed onto panel boards. Flies are secured with wooden embroidery hoops, covered with a coarse mesh screen cloth previously sprayed with the respective formulation. After 4 hours, flies are transferred into a clean jar. The mortality rate is measured 24 hours after the transfer, and is determined using the same procedures as are illustrated in Example 2.\nPlywood panels (225 cm^2) were treated with chemicals at a rate of 1.67 mg cm^−2. Panels were treated on day 0 and was held until exposure on post-treatment day. Mosquitoes were exposed to chemicals for 2 h, and mortality rate was assessed 24 h after initial exposure. Control contained formulation ingredients without semiochemicals."}, "[7]": {"conditions": "2 h constant exposure, glass jar"}, "[8]": {"conditions": "2 h exposure, transferred to clean jars, mortality 24 h after initial exposure"}, "[9]": {"conditions": "4 h constant exposure, glass jar"}}, "note": "Where two headings read alike, the source gives them in different places.", "data": [{"smiles": "CC1(C)CCCC2=C1CC(C=O)CC2", "note": "(stereo not drawn) [Cyclemone A, 2-naphthaldehyde, 1,2,3,4,5,6,7,8-octahydro-8,8-dimethyl]", "values": [{"measurement": "LC50", "setting": "[1]; [7]", "result": 48.24, "unit": "μg cm^−2"}, {"measurement": "LC90", "setting": "[1]; [7]", "result": 69.90, "unit": "μg cm^−2"}, {"measurement": "LC50", "setting": "[1]; [8]", "result": 47.29, "unit": "μg cm^−2"}, {"measurement": "LC90", "setting": "[1]; [8]", "result": 68.95, "unit": "μg cm^−2"}, {"measurement": "decline in toxicity after a 24-hour holding period subsequent to an initial 2-hour exposure", "setting": "[1]", "result": "no decline in toxicity"}, {"measurement": "LC50", "setting": "[1]; [9]", "result": 44.52, "unit": "μg cm^−2"}, {"measurement": "LC90", "setting": "[1]; [9]", "result": 71.44, "unit": "μg cm^−2"}, {"measurement": "mortality rate", "setting": "[1]; after 24-hour exposure", "result": "~100", "unit": "%"}, {"measurement": "LC50", "setting": "Stomoxys calcitrans; 2 h constant exposure", "result": 19.52, "unit": "μg cm^−2"}, {"measurement": "LC90", "setting": "Stomoxys calcitrans; 2 h constant exposure", "result": 31.31, "unit": "μg cm^−2"}, {"measurement": "LC50", "setting": "Stomoxys calcitrans; 4 h constant exposure", "result": 18.18, "unit": "μg cm^−2"}, {"measurement": "LC90", "setting": "Stomoxys calcitrans; 4 h constant exposure", "result": 32.38, "unit": "μg cm^−2"}, {"measurement": "LC50", "setting": "Stomoxys calcitrans; 24 h constant exposure", "result": 14.82, "unit": "μg cm^−2"}, {"measurement": "LC90", "setting": "Stomoxys calcitrans; 24 h constant exposure", "result": 27.10, "unit": "μg cm^−2"}, {"measurement": "LC50", "setting": "[2]; 24 h constant exposure", "result": 468.96, "unit": "μg cm^−2"}, {"measurement": "LC90", "setting": "[2]; 24 h constant exposure", "result": 759.00, "unit": "μg cm^−2"}, {"measurement": "LC50", "setting": "[2]; 48 h constant exposure", "result": 440.04, "unit": "μg cm^−2"}, {"measurement": "LC90", "setting": "[2]; 48 h constant exposure", "result": 659.92, "unit": "μg cm^−2"}, {"measurement": "mortality rate", "setting": "Aedes aegypti [3]", "result": "~100", "unit": "%"}, {"measurement": "mortality at the 24-hour examination", "setting": "[4]", "result": "All mosquitoes were dead"}, {"measurement": "LC50", "setting": "[4]; 2 h constant exposure", "result": 14.29, "unit": "μg cm^−2"}, {"measurement": "LC50", "setting": "[4]; 4 h constant exposure", "result": 12.27, "unit": "μg cm^−2"}, {"measurement": "mortality at the 24-hour examination", "setting": "Aedes albopictus", "result": "All mosquitoes were dead"}, {"measurement": "LC50", "setting": "Aedes albopictus; 2 h constant exposure", "result": 19.88, "unit": "μg cm^−2"}, {"measurement": "LC50", "setting": "Aedes albopictus; 4 h constant exposure", "result": 18.72, "unit": "μg cm^−2"}, {"measurement": "LC50", "setting": "Aedes aegypti [5]; 2 h constant exposure", "result": 26.03, "unit": "μg cm^−2"}, {"measurement": "LC50", "setting": "Aedes aegypti [5]; 2 h exposure then transferred, mortality 24 h after initial exposure", "result": 41.13, "unit": "μg cm^−2"}, {"measurement": "LC50", "setting": "Aedes aegypti [5]; 4 h constant exposure", "result": 17.23, "unit": "μg cm^−2"}, {"measurement": "mortality rate", "setting": "Aedes aegypti [5]; camouflage military fabric, after a 24-hour exposure", "result": "~100", "unit": "%"}, {"measurement": "% mortality", "setting": "[6]; Alachua strain", "result": 100.00, "unit": "a %"}, {"measurement": "% mortality", "setting": "[6]; Gilchrist strain", "result": 95.00, "unit": "a %"}]}, {"smiles": "C/C=C/C(=O)C1=C(C)CCCC1(C)C", "note": "[Beta damascone, beta damascone]", "values": [{"measurement": "LC90", "setting": "[1]; [7]", "result": 78.46, "unit": "μg cm^−2"}, {"measurement": "LC90", "setting": "[1]; [8]", "result": 74.63, "unit": "μg cm^−2"}, {"measurement": "decline in toxicity after a 24-hour holding period subsequent to an initial 2-hour exposure", "setting": "[1]", "result": "no decline in toxicity"}, {"measurement": "LC90", "setting": "[1]; [9]", "result": 53.59, "unit": "μg cm^−2"}, {"measurement": "mortality rate", "setting": "[1]; in vivo", "result": "~100", "unit": "%"}, {"measurement": "LC90", "setting": "Stomoxys calcitrans; 2 h constant exposure", "result": 34.57, "unit": "μg cm^−2"}, {"measurement": "LC90", "setting": "Stomoxys calcitrans; 4 h constant exposure", "result": 29.68, "unit": "μg cm^−2"}, {"measurement": "LC90", "setting": "Stomoxys calcitrans; 24 h constant exposure", "result": 20.33, "unit": "μg cm^−2"}, {"measurement": "LC90", "setting": "[2]; 24 h constant exposure", "result": 618.12, "unit": "μg cm^−2"}, {"measurement": "LC90", "setting": "[2]; 48 h constant exposure", "result": 516.16, "unit": "μg cm^−2"}, {"measurement": "mortality at the 24-hour examination", "setting": "[4]", "result": "All mosquitoes were dead"}, {"measurement": "mortality at the 24-hour examination", "setting": "Aedes albopictus", "result": "All mosquitoes were dead"}, {"measurement": "mortality rate", "setting": "Aedes aegypti [5]; in vivo", "result": "~100", "unit": "%"}, {"measurement": "mortality rate", "setting": "[6]; in vivo", "result": "95.0-100.0%"}]}]}
